Data published in patent US20250248979A1, “NOVEL GPX4 INHIBITORS AND USES THEREOF” (THE TRUSTEES OF COLUMBIA UNIVERSITY IN THE CITY OF NEW YORK, priority 2022, published 2025).
Residue numbers refer to the chain shown, from its start. In brackets after ≈: the same amount, converted by molar mass. Like-named read-outs stand apart in the source and are kept apart here.

Key:
[1] = target: T1, GPX4^U46C (Homo sapiens, UniProt P36969, U73C); experiment: Microscale thermophoresis (MST) binding; conditions: half maximal effective concentration, covalent mechanism
T1 construct: made in house; host or cells: E. coli BL21-Gold (DE3)
T1 sequence (P36969 1-170 isoform P36969-2 U46C): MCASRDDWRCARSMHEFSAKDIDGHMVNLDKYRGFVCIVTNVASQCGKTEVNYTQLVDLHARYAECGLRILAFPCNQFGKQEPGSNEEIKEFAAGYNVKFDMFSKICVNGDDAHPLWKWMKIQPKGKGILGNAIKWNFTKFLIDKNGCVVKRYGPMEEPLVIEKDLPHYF
Description: The bacterial expression vector pET-15b-His-tagged-c-GPX4^U46C was prepared as previously described (Yang et al. 2016). The C-terminal His-tagged GPX4U46C protein was expressed in E. coli and purified according to a protocol modified from Scheerer et al. 2007. First, pET-15b-His-tagged-c-GPX4^U46C was transformed into XL10-Gold (Agilent #200314) E. coli ultracompetent cells for plasmid DNA production and isolated using QIAprep Spin Miniprep Kit (Qiagen). For protein expression, pET-15b-His-tagged-c-GPX4^U46C was then transformed into BL21-Gold (DE3) E. coli competent cells (Agilent #230132) and plated on LB agar with 100 μg/mL ampicillin. A starter culture was inoculated in 7 mL of LB medium with 100 μg/mL ampicillin using a single colony and allowed to grow in a 37° C. shaker (225 rpm) for 16 hours. 3 mL of the starter culture was added to 1 L of LB medium with 100 μg/mL ampicillin, which was then incubated in a 37° C. shaker (225 rpm) to an OD600 of 0.9. At that point, the incubation temperature was reduced to 15° C. and the culture was allowed to equilibrate for 1 hour. Expression of the recombinant enzyme was induced by addition of isopropyl β-D-1-thiogalactopyranoside (IPTG, 1 mM final concentration) overnight for 12-15 hours shaking at 225 rpm and 15° C. The next morning, cells were harvested by centrifugation at 4000 rpm and 4° C. for 20 minutes. The cell pellet was then frozen at −80° C. for at least 1 hour or until lysis. To lyse the cells, the cell pellet was resuspended with 25 mL of chilled lysis buffer (100 mM Tris pH 8.0, 300 mM NaCl, 20 mM imidazole, 3 mM TCEP, and 2.5 mini tablets of complete Protease Inhibitor Cocktail (Roche-Sigma #11836170001)) then lysed using an Emulsiflex C3 high-pressure homogenizer. To remove cell debris, the lysate was subjected to centrifugation at 10000 rpm and 4° C. for 20 minutes. The supernatant was centrifuged once more at the same conditions, then the clarified lysate was applied onto a 5-mL HisTrap HP column (Cytiva #17-5248-01), washed with 90% Buffer A (100 mM Tris pH 8.0, 300 mM NaCl, 5% glycerol, 3 mM TCEP) 10% Buffer B (Buffer A with 500 mM imidazole), then eluted with a continuous gradient (10-100% Buffer B). The protein was concentrated using Amicon Ultra-15 centrifugal filter units with a 10 kDa molecule weight cutoff (EMD Millipore #UFC901024) then further purified by FPLC on a size exclusion HiLoad Superdex 200 column (Cytiva) in crystallization buffer (20 mM Tris pH 8.0, 300 mM NaCl, 3 mM TCEP). The fractions containing 90-95% pure GPX4 protein, as evaluated by SDS-PAGE, were pooled and concentrated using the same Amicon centrifugal filter units as above to 5 mg/mL. Concentration was determined by Nanodrop. Protein was aliquoted into Eppendorf tubes, flash frozen using liquid nitrogen, and stored at −80° C. until use.
MST experiments were conducted using a Monolith NT.115 (Nanotemper Technologies) according to manufacturer instructions. To label the protein, 90 μL of 200 nM GPX4^U46C was combined with 90 μL of 100 nM RED-tris-NTA dye diluted in PBS buffer with 0.05% Tween 20 (PBST buffer). The mixture was incubated for 30 minutes at room temperature, followed by centrifugation for 10 minutes at 4° C. and 15,000×g. To assess binding of the compounds, a 16-point 2-fold dilution series in PBST buffer was prepared and mixed in a 1:1 ratio with the labeled protein solution for a final volume of 20 μL. The reaction mixture was loaded into standard treated capillary tubes and analyzed with the Monolith NT.115 at 40% LED power and 40% MST power with a laser-on time of 5 seconds. The data were analyzed in MO.Affinity Analysis v2.3 software.

[2] = target: T2, GPX4 (Homo sapiens, UniProt P36969); experiment: GPX4 activity assay in cell lysates (NADPH-coupled); format: biochemical; design: endogenous in cells; host or cells: A-673 cell lysate; conditions: for GPX4% inhibition at 200 (μM): generation 1, mean ± s.d., n = 3
T2 sequence (P36969 1-170 isoform P36969-2): T1 sequence (P36969 1-170 isoform P36969-2 U46C) with C46U
Outline: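 Native GPX4 in lysates of A-673 cells grown with 20 nM sodium selenite; lysate preincubated with compound 45 min at 37 °C in pH 8.0 buffer with 3 mM GSH, 0.5 mM NADPH and glutathione reductase. Reaction started with phosphatidylcholine hydroperoxide; NADPH consumption followed at 340 nm over 25 min; triplicates.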

[3] = tested on: Salmonella typhimurium TA98, TA100, TA1535, TA1537
[4] = in vitro; format: in vitro ADME, human; conditions: human, microsomes
Description: (§1) […]. The incubation timepoints measured were 0, 5, 10, 15, 30, and 45 minutes. All samples were prepared in duplicate and analyzed by LC-MS/MS.

[5] = in vitro; format: in vitro ADME, mouse; conditions: mouse, microsomes
Description: as §1

[6] = not given; remark: listed apart in the source
[7] = Kinetic aqueous solubility
[8] = tested on: HT-1080 cells; experiment: Cellular dose response assay, HT-1080 with and without Fer-1; format: cell-based, human
Outline: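 Following overnight attachment (1500 cells per well), triplicate wells got 2-fold serial dilutions across 12 points, with or without Fer-1 for HT-1080, at 0.4% final DMSO. After 48 h incubation, luminescent ATP-based viability (CellTiter-Glo) was recorded.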

[9] = HT1080 + Fer-1, read-out: IC50 (uM) HT1080 + Fer-1
[10] = HT1080, without Fer-1, read-out: IC50 (uM) HT1080

Structure (SMILES)	Microsome Stability t1/2 (min) human [4]	Microsome Stability t1/2 (min) mouse [5]	Plasma Stability t1/2 (min) human	Plasma Stability t1/2 (min) mouse [6]	Solubility ([7]; aqueous solubility, Table 9)	GPX4% inhibition at 5 μM [2]	also measured
COc1cccc2[nH]c(C(=O)NC(C)(C)COC(=O)CCl)cc12 [QW-144]	–	–	–	–	–	–	EC50 [1]: 0.836 µM; GPX4% inhibition at 200 (μM) [2]: 50.0 ± 32.5%
CN(N=O)C(=O)N[C@H]1C(O)O[C@H](CO)[C@@H](O)[C@@H]1O (mixture of isomers) [Streptozotocin]	–	–	–	–	–	–	Positive Significance (− to +++) TA98 − S9 ([3]; 2.5 μM): + (Weak positive, if p < 0.05); Positive Significance (− to +++) TA100 + S9 ([3]; 2.5 μM): +++ (Very strong positive, if p < 0.001); Positive Significance (− to +++) TA100 − S9 ([3]; TA100, − S9, 2.5 μM): +++ (Very strong positive, if p < 0.001); Positive Significance (− to +++) TA1535 + S9 ([3]; 2.5 μM): +++ (Very strong positive, if p < 0.001); Positive Significance (− to +++) TA1535 − S9 ([3]; TA1535, − S9, 2.5 μM): +++ (Very strong positive, if p < 0.001)
Cn1nc(C(=O)NC(C)(C)COC(=O)CCl)c2ccc(-c3csc4ccccc34)cc21 [QW-505]	1.7 min	1.8 min	10.2 min	6.3 min	<1.3 µM	76.1 ± 4.0%	Solubility ([7]; 1% DMSO, Phosphate Buffered Saline pH 7.4, 1 hour, ambient, UV/Vis absorbance): <1.3 µM
Nc1ccc2cc3ccccc3cc2c1 [Compound 2-Aminoanthracene, 2-Aminoanthracene]	–	–	–	–	–	–	Positive Significance (− to +++) TA98 + S9 ([3]; 1 μM): +++ (Very strong positive, if p < 0.001); Positive Significance (− to +++) TA100 + S9 ([3]; 1 μM): +++ (Very strong positive, if p < 0.001); Positive Significance (− to +++) TA1535 + S9 ([3]; 1 μM): ++ (Strong positive, if p < 0.01); Positive Significance (− to +++) TA1537 + S9 ([3]; 1 μM): +++ (Very strong positive, if p < 0.001)
Cn1nc(C(=O)NC(C)(C)COC(=O)CCl)c2ccc(-c3ccc4c(c3)OCO4)cc21 [QW-594]	250 min	137 min	6.6 min	17.0 min	1.0 µM (≈ 0.444 µg/mL)	–	Selectivity [8]: 3.3; IC50 [8, 9]: 8.8 µM; IC50 [8, 10]: 2.7 µM; unbound clearance rate [5]: 5.1 µL/h/mg; half-life in mouse plasma [6]: 17 min; GPX4 inhibitory activity, result in words [2]: comparable to that of QW-446; GPX4% inhibition at 2.5 μM [2]: 71.5 ± 3.0%; GPX4 inhibition rate ([2]; concentration not given): 75%
O=[N+]([O-])c1ccc2c(c1)Cc1ccccc1-2 [Compound 2-Nitrofluorene, 2-Nitrofluorene]	–	–	–	–	–	–	Positive Significance (− to +++) TA98 + S9 ([3]; 30 μM): +++ (Very strong positive, if p < 0.001); Positive Significance (− to +++) TA98 − S9 ([3]; 30 μM): +++ (Very strong positive, if p < 0.001)
Cc1ccc2[nH]c(C(=O)NC(C)(C)COC(=O)CCl)cc2c1 [QW-155]	–	–	–	–	–	–	EC50 [1]: 473 µM; GPX4% inhibition at 200 (μM) [2]: 50.9 ± 3.6%
Nc1c2ccccc2nc2ccccc12 [Compound 9-Aminoacridine, 9-Aminoacridine]	–	–	–	–	–	–	Positive Significance (− to +++) TA1537 + S9 ([3]; 10 μM): ++ (Strong positive, if p < 0.01); Positive Significance (− to +++) TA1537 − S9 ([3]; TA1537, − S9, 10 μM): +++ (Very strong positive, if p < 0.001)
Cn1nc(C(=O)NC(C)(C)COC(=O)CCl)c2ccc(-c3ccc(Oc4ccccc4)c(Cl)c3)cc21 [QW-561]	12 min	24 min	116 min	23.9 min	15.6 µM (≈ 8.21 µg/mL)	87.6 ± 2.8%	–
CC(C)Oc1ccc(-c2ccc3c(C(=O)NC(C)(C)COC(=O)CCl)nn(C)c3c2)cc1Cl [QW-550]	49 min	25 min	73.2 min	12.5 min	7.8 µM (≈ 3.84 µg/mL)	91.5 ± 2.2%	–
Cn1nc(C(=O)NC(C)(C)COC(=O)CCl)c2ccc(-c3ccc(Cl)c(Cl)c3)cc21 [QW-570]	22 min	15 min	56.7 min	16.9 min	15.6 µM (≈ 7.31 µg/mL)	80.7 ± 14.8%	–
COc1ccc(-c2ccc3c(C(=O)NC(C)(C)C(C)(C)OC(=O)CCl)nn(C)c3c2)cc1Cl [QW-730]	6.6 min	10.7 min	318 min	385 min	–	–	IC50 [8, 9]: 5.7 µM; IC50 [8, 10]: 0.59 µM; ferroptosis induction / potency in HT-1080 cells, result in words ([8]; RSL3 as control): sub-micromolar GI50 value; Selectivity ([8]; ferroptosis selectivity, HT1080 + Fer-1 vs HT1080): 9.7; GPX4% inhibition at 2.5 μM [2]: 98.4 ± 17.6%
